{"source": "PubChem BioAssay (NCI)", "assay_in_all_cases": "NCI-60 cell line screen, 48 h", "key": {"[1]": {"test_system": "COLO 205 colon"}, "[2]": {"test_system": "SF-295 CNS"}, "[3]": {"test_system": "SF-539 CNS"}, "[4]": {"test_system": "786-0 renal"}, "[5]": {"test_system": "MOLT-4 leukemia"}, "[6]": {"test_system": "SK-MEL-5 melanoma"}, "[7]": {"test_system": "NCI-H522 lung"}, "[8]": {"test_system": "NCI-H23 lung"}, "[9]": {"test_system": "HL-60(TB) leukemia"}, "[10]": {"test_system": "SK-MEL-2 melanoma"}, "[11]": {"test_system": "MDA-MB-231 breast"}, "[12]": {"test_system": "KM12 colon"}, "[13]": {"test_system": "K-562 leukemia"}, "[14]": {"test_system": "LOX IMVI melanoma"}, "[15]": {"test_system": "IGROV1 ovarian"}, "[16]": {"test_system": "HS 578T breast"}, "[17]": {"test_system": "RPMI-8226 leukemia"}, "[18]": {"test_system": "OVCAR-4 ovarian"}, "[19]": {"test_system": "HCT-116 colon"}, "[20]": {"test_system": "SK-OV-3 ovarian"}, "[21]": {"test_system": "CCRF-CEM leukemia"}, "[22]": {"test_system": "UO-31 renal"}, "[23]": {"test_system": "HCC-2998 colon"}, "[24]": {"test_system": "HOP-92 NSCLC"}, "[25]": {"test_system": "PC-3 prostate"}, "[26]": {"test_system": "SNB-19 CNS"}, "[27]": {"test_system": "HCT-15 colon"}, "[28]": {"test_system": "SN12C renal"}, "[29]": {"test_system": "UACC-257 melanoma"}}, "note": "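The compound was tested at five concentrations on cells cultured in 96-well plates, with a 48-hour exposure period. GI50 is the concentration that inhibits growth by half. TGI marks complete inhibition of growth.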"}
{"smiles": "O=C(Nc1ccc([As]=[As]c2ccc(NC(=O)c3ccccc3)cc2)cc1)c1ccccc1", "note": "(stereo not drawn)", "values": [{"measurement": "GI50", "setting": "[1]", "result": 239, "unit": "nM"}, {"measurement": "TGI", "setting": "[1]", "result": 769, "unit": "nM"}, {"measurement": "GI50", "setting": "[2]", "result": 1510, "unit": "nM"}, {"measurement": "TGI", "setting": "[2]", "result": 3080, "unit": "nM"}, {"measurement": "GI50", "setting": "[3]", "result": 381, "unit": "nM"}, {"measurement": "TGI", "setting": "[3]", "result": 1530, "unit": "nM"}, {"measurement": "GI50", "setting": "[4]", "result": 454, "unit": "nM"}, {"measurement": "TGI", "setting": "[4]", "result": 1670, "unit": "nM"}, {"measurement": "GI50", "setting": "[5]", "result": 339, "unit": "nM"}, {"measurement": "TGI", "setting": "[5]", "result": 1840, "unit": "nM"}, {"measurement": "GI50", "setting": "[6]", "result": 846, "unit": "nM"}, {"measurement": "TGI", "setting": "[6]", "result": 2100, "unit": "nM"}, {"measurement": "GI50", "setting": "[7]", "result": 74.3, "unit": "nM"}, {"measurement": "TGI", "setting": "[7]", "result": 217, "unit": "nM"}, {"measurement": "GI50", "setting": "[8]", "result": 391, "unit": "nM"}, {"measurement": "TGI", "setting": "[8]", "result": 1480, "unit": "nM"}, {"measurement": "GI50", "setting": "[9]", "result": 328, "unit": "nM"}, {"measurement": "TGI", "setting": "[9]", "result": 2090, "unit": "nM"}, {"measurement": "GI50", "setting": "[10]", "result": 334, "unit": "nM"}, {"measurement": "TGI", "setting": "[10]", "result": 1010, "unit": "nM"}, {"measurement": "GI50", "setting": "[11]", "result": 323, "unit": "nM"}, {"measurement": "TGI", "setting": "[11]", "result": 1330, "unit": "nM"}, {"measurement": "GI50", "setting": "[12]", "result": 1690, "unit": "nM"}, {"measurement": "TGI", "setting": "[12]", "result": 3120, "unit": "nM"}, {"measurement": "GI50", "setting": "[13]", "result": 215, "unit": "nM"}, {"measurement": "TGI", "setting": "[13]", "result": 560, "unit": "nM"}, {"measurement": "GI50", "setting": "[14]", "result": 262, "unit": "nM"}, {"measurement": "TGI", "setting": "[14]", "result": 786, "unit": "nM"}, {"measurement": "GI50", "setting": "[15]", "result": 756, "unit": "nM"}, {"measurement": "TGI", "setting": "[15]", "result": 2250, "unit": "nM"}, {"measurement": "GI50", "setting": "[16]", "result": 478, "unit": "nM"}, {"measurement": "TGI", "setting": "[16]", "result": 6320, "unit": "nM"}, {"measurement": "GI50", "setting": "[17]", "result": 247, "unit": "nM"}, {"measurement": "TGI", "setting": "[17]", "result": 728, "unit": "nM"}, {"measurement": "GI50", "setting": "[18]", "result": 466, "unit": "nM"}, {"measurement": "TGI", "setting": "[18]", "result": 1810, "unit": "nM"}, {"measurement": "GI50", "setting": "[19]", "result": 234, "unit": "nM"}, {"measurement": "TGI", "setting": "[19]", "result": 624, "unit": "nM"}, {"measurement": "GI50", "setting": "[20]", "result": 1900, "unit": "nM"}, {"measurement": "TGI", "setting": "[20]", "result": 3310, "unit": "nM"}, {"measurement": "GI50", "setting": "[21]", "result": 136, "unit": "nM"}, {"measurement": "TGI", "setting": "[21]", "result": 428, "unit": "nM"}, {"measurement": "GI50", "setting": "[22]", "result": 975, "unit": "nM"}, {"measurement": "TGI", "setting": "[22]", "result": 2250, "unit": "nM"}, {"measurement": "GI50", "setting": "[23]", "result": 1240, "unit": "nM"}, {"measurement": "TGI", "setting": "[23]", "result": 2500, "unit": "nM"}, {"measurement": "GI50", "setting": "[24]", "result": 179, "unit": "nM"}, {"measurement": "TGI", "setting": "[24]", "result": 642, "unit": "nM"}, {"measurement": "GI50", "setting": "[25]", "result": 1180, "unit": "nM"}, {"measurement": "TGI", "setting": "[25]", "result": 2460, "unit": "nM"}, {"measurement": "GI50", "setting": "[26]", "result": 1470, "unit": "nM"}, {"measurement": "TGI", "setting": "[26]", "result": 2840, "unit": "nM"}, {"measurement": "GI50", "setting": "[27]", "result": 302, "unit": "nM"}, {"measurement": "TGI", "setting": "[27]", "result": 1360, "unit": "nM"}, {"measurement": "GI50", "setting": "[28]", "result": 679, "unit": "nM"}, {"measurement": "TGI", "setting": "[28]", "result": 1980, "unit": "nM"}, {"measurement": "GI50", "setting": "[29]", "result": 244, "unit": "nM"}, {"measurement": "TGI", "setting": "[29]", "result": 1010, "unit": "nM"}]}
